Laboratory results from patent US20240216392A1, “METHODS OF TREAMENT” (Arena Pharmaceuticals, Inc., priority 2022, published 2024).
Where two headings read alike, the source gives them in different places.

Experiment: Phase 1 multiple-dose study, plasma PK
Format: in vivo, human
Conditions: both sexes, human, plasma, oral; for AUC: read-out: Plasma AUCtau, geometric mean (geometric CV %); for Cmax: read-out: Plasma Cmax, geometric mean (geometric CV %); for Tmax: read-out: Plasma Tmax, median (minimum, maximum); for AUC(0-inf): read-out: plasma geometric mean AUC0-inf
Protocol: Subjects were enrolled to 1 of 2 dosage regimens. Subject enrollment was stratified by sex to ensure approximate sex balance in each cohort.
(§1) Morning doses were administered following a standard light breakfast (e.g., milk and cereal, toast, and fruit) on all days. TID dosing (three times a day) was approximately 8 hours apart. Subjects fasted from midnight onwards, until the morning breakfast each day. There was no fluid restriction during the study, but subjects should not have consumed excessive amounts of fluid on any day.
The Phase 1, open-label, multiple-dose study of Example 1 was conducted for Cohorts 1-3, 4A, and 4B.
as §1, with “hours apart, and BID dosing (two times a day) was 12 hours” for “hours”, “were” for “should”, “to consume” for “have consumed”

[1] = 12 mg, Day 8, Cohort 2 (12 mg TID)
[2] = 12 mg, Day 8, Cohort 3 (12 mg BID)
[3] = 12 mg, Day 9, Cohort 2 (12 mg TID)
[4] = 12 mg, Day 9, Cohort 3 (12 mg BID)
[5] = 12 mg, Day 10, Cohort 2 (12 mg TID)
[6] = 12 mg, Day 10, Cohort 3 (12 mg BID)
[7] = 15 mg, Day 8, Cohort 4A (15 mg BID)
[8] = 15 mg, Day 9, Cohort 4A (15 mg BID)
[9] = 15 mg, Day 10, Cohort 4A (15 mg BID)
[10] = 18 mg, Day 8, Cohort 4B (18 mg BID)
[11] = 18 mg, Day 9, Cohort 4B (18 mg BID)
[12] = 18 mg, Day 10, Cohort 4B (18 mg BID)

## C[C@H]1CN2CCNCc3ccc(C(=O)NCC(F)F)c1c32 [Compound 1, (R)—N-(2,2-difluoroethyl)-7-methyl-1,2,3,4,6,7-hexahydro-[1,4]diazepino[6,7,1-hi]indole-8-carboxamide]
[1]
  AUC: 190 ng·h/mL
  Cmax: 36.7 ng/mL
  Tmax: 1.01 h
12 mg, Day 8, Cohort 2 (12 mg TID), read-out: Plasma T1/2, mean (SD) (converted)
  half-life: 4.74 h
[2]
  AUC: 156 ng·h/mL
  Cmax: 30.3 ng/mL
  Tmax: 1.01 h
12 mg, Day 8, Cohort 3 (12 mg BID), read-out: Plasma T1/2, mean (SD) (converted)
  half-life: 4.32 h
[3]
  AUC: 194 ng·h/mL
  Cmax: 44.5 ng/mL
  Tmax: 0.92 h
12 mg, Day 9, Cohort 2 (12 mg TID), read-out: Plasma T1/2, mean (SD) (converted)
  half-life: 4.79 h
[4]
  AUC: 163 ng·h/mL
  Cmax: 37.2 ng/mL
  Tmax: 0.93 h
12 mg, Day 9, Cohort 3 (12 mg BID), read-out: Plasma T1/2, mean (SD) (converted)
  half-life: 4.58 h
[5]
  AUC: 196 ng·h/mL
  Cmax: 39.8 ng/mL
  Tmax: 1.02 h
12 mg, Day 10, Cohort 2 (12 mg TID), read-out: Plasma T1/2, mean (SD) (converted)
  half-life: 4.08 h
[6]
  AUC: 154 ng·h/mL
  Cmax: 31.3 ng/mL
  Tmax: 1 h
12 mg, Day 10, Cohort 3 (12 mg BID), read-out: Plasma T1/2, mean (SD) (converted)
  half-life: 3.54 h
[7]
  AUC: 194 ng·h/mL
  Cmax: 44.8 ng/mL
  Tmax: 0.55 h
15 mg, Day 8, Cohort 4A (15 mg BID), read-out: Plasma T1/2, mean (SD) (converted)
  half-life: 5.36 h
[8]
  AUC: 208 ng·h/mL
  Cmax: 50.2 ng/mL
  Tmax: 0.57 h
15 mg, Day 9, Cohort 4A (15 mg BID), read-out: Plasma T1/2, mean (SD) (converted)
  half-life: 5.51 h
[9]
  AUC: 193 ng·h/mL
  Cmax: 40.9 ng/mL
  Tmax: 1.06 h
15 mg, Day 10, Cohort 4A (15 mg BID), read-out: Plasma T1/2, mean (SD) (converted)
  half-life: 3.72 h
[10]
  AUC: 230 ng·h/mL
  Cmax: 43.2 ng/mL
  Tmax: 0.99 h
18 mg, Day 8, Cohort 4B (18 mg BID), read-out: Plasma T1/2, mean (SD) (converted)
  half-life: 5.51 h
[11]
  AUC: 242 ng·h/mL
  Cmax: 47.7 ng/mL
  Tmax: 0.5 h
18 mg, Day 9, Cohort 4B (18 mg BID), read-out: Plasma T1/2, mean (SD) (converted)
  half-life: 4.3 h
[12]
  AUC: 224 ng·h/mL
  Cmax: 53 ng/mL
  Tmax: 1 h
18 mg, Day 10, Cohort 4B (18 mg BID), read-out: Plasma T1/2, mean (SD) (converted)
  half-life: 3.51 h
Steady state, read-out: half-life at steady state (converted)
  half-life: ~5 h
Day 1, single 3 mg dose, Cohort 1
  AUC(0-inf): 21.3 ng·h/mL
Day 1, single 6 mg dose, Cohorts 2, 3, 4A, 4B
  AUC(0-inf): 36.5 to 51.9 ng·h/mL
